Experimental data taken from US11006600B2, “Rice cultivar designated ‘CL272’” (Board of Supervisors of Louisiana State University and …, priority 2016, dated 2021).

Each compound was assayed on rice cultivar 'CL272' (assay: Herbicide tolerance and susceptibility characteristics of rice variety 'CL272'). Settings: at levels of the herbicide that would normally inhibit the growth of a rice plant.
Type: in vivo, Oryza sativa
Description: Among others, the herbicide tolerance and susceptibility characteristics of ‘CL272’ include or are expected to include the following. These characteristics are in some cases based on actual observations to date, and in other cases reflect assumptions based on direct descent from ‘CL161’: […]
For `CC(C)C1(C)N=C(c2ncccc2C(=O)O)NC1=O` (centres unmarked) [imazapyr], the “response of 'CL272' rice to the herbicide (resistant / sensitive)” value (from here on “response … (resistant / sensitive)”) was “resistant”.
In the case of `CCOC(=O)c1ccccc1S(=O)(=O)NC(=O)Nc1nc(Cl)cc(OC)n1` [chlorimuron ethyl], the “response … (resistant / sensitive)” value is reported as “sensitive”.
In the case of `COc1cc(OC)nc(NC(=O)NS(=O)(=O)c2ncccc2C(=O)N(C)C)n1` [nicosulfuron], the “response … (resistant / sensitive)” value is reported as “resistant”.
With `COC(=O)c1ccccc1S(=O)(=O)NC(=O)Nc1nc(C)cc(C)n1` [sulfometuron methyl] the “response … (resistant / sensitive)” value was “sensitive”.
`COC(=O)c1ccccc1S(=O)(=O)NC(=O)N(C)c1nc(C)nc(OC)n1` [tribenuron methyl] was tested, and the “response … (resistant / sensitive)” value was “resistant”.
With `COC(=O)c1ccccc1S(=O)(=O)NC(=O)Nc1nc(C)nc(OC)n1` [metsulfuron methyl] the “response … (resistant / sensitive)” value was “resistant”.
For `Cc1cnc(C2=NC(=O)C(C)(C(C)C)N2)c(C(=O)O)c1` (centres unmarked) [imazapic], the “response … (resistant / sensitive)” value was “resistant”.
In the case of `CCS(=O)(=O)c1cccnc1S(=O)(=O)NC(=O)Nc1nc(OC)cc(OC)n1` [rimsulfuron], the “response … (resistant / sensitive)” value is reported as “sensitive”.
In the case of `CC(C)C1(C)N=C(c2nc3ccccc3cc2C(=O)O)NC1=O` (centres unmarked) [imazaquin], the “response … (resistant / sensitive)” value is reported as “resistant”.
`COCc1cnc(C2=NC(C)(C(C)C)C(=O)N2)c(C(=O)O)c1` (centres unmarked) [imazamox] was tested, and the “response … (resistant / sensitive)” value was “resistant”.
In the case of `COC(=O)c1sccc1S(=O)(=O)NC(=O)Nc1nc(C)nc(OC)n1` [thifensulfuron methyl], the “response … (resistant / sensitive)” value is reported as “resistant”.
For `CCc1cnc(C2=NC(C)(C(C)C)C(=O)N2)c(C(=O)O)c1` (centres unmarked) [imazethapyr], the “response … (resistant / sensitive)” value was “resistant”.

Same assay, conditions: in vivo
`COCc1cnc(C2=NC(C)(C(C)C)C(=O)N2)c(C(=O)O)c1` (centres unmarked) [imazamox] was tested, and the “resistance of 'CL272' rice to imidazolinone herbicides, general statement” value was “highly resistant”.
In the case of `CCc1cnc(C2=NC(C)(C(C)C)C(=O)N2)c(C(=O)O)c1` (centres unmarked) [imazethapyr], the “resistance of 'CL272' rice to imidazolinone herbicides, general statement” value is reported as “highly resistant”.
